Source: patent publication US8222404B2, “[1,2,4]Thiadiazin-3-yl acetic acid compound and methods of making the acetic acid compound” (Anadys Pharmaceuticals, Inc., priority 2008, dated 2012)

System: HCV Huh-luc/neo-ET replicon cells
Assay: Luciferase-Based HCV Replicon Assay (EC50 (1b))
Type: cell-based
Conditions: Hepatitis C virus, 72 hours exposure, luciferase activity
Procedure, shortened: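 EC50 (1b) derived from % inhibition of luciferase signal relative to untreated cells, background set by 100 nM BILN-2061 (protease inhibitor). Triplicate dose series added to replicon cells 24 h post-seeding; luminescence measured after 72 h compound exposure.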

**Q.** `CS(=O)(=O)NCc1csc2c1S(=O)(=O)N=C(C1=C(O)C3C4CCC(O4)C3N(Cc3ccsc3)C1=O)N2` (racemic) [Example 61, (rac-di-exo)-N-[3-(6-Hydroxy-4-oxo-3-thiophen-3-ylmethyl-11-oxa-3-aza-tricyclo[6.2.1.0^2,7]undec-5-en-5-yl)-1,1-dioxo-1,4-dihydro-1λ^6-thieno[2,3-e][1,2,4]thiadiazin-7-ylmethyl]-methanesulfonamide] was tested. Which EC50 did it give?
**A.** 20 to 100 nM

**Q.** For `CS(=O)(=O)NCc1csc2c1S(=O)(=O)N=C(C1=C(O)C(C3CCCC3)CN(Cc3ccc(F)cc3)C1=O)N2` (racemic) [Example 16, rac-N-{3-[5-Cyclopentyl-1-(4-fluoro-benzyl)-4-hydroxy-2-oxo-1,2,5,6-tetrahydro-pyridin-3-yl]-1,1-dioxo-1,4-dihydro-1λ^6-thieno[2,3-e][1,2,4]thiadiazin-7-ylmethyl}-methanesulfonamide], which EC50 is on record?
**A.** 20 to 100 nM

**Q.** With `COc1ccc(CN2C(=O)C(C3=NS(=O)(=O)c4c(CNS(C)(=O)=O)csc4N3)=C(O)C3CCCCC32)c(OC)c1` (racemic) [Example 78, (rac-cis)-N-{3-[1-(2,4-Dimethoxy-benzyl)-4-hydroxy-2-oxo-1,2,4a,5,6,7,8,8a-octahydro-quinolin-3-yl]-1,1-dioxo-1,4-dihydro-1λ^6-thieno[2,3-e][1,2,4]thiadiazin-7-ylmethyl}-methanesulfonamide] as the molecule, how does the EC50 read?
**A.** > 1000 nM

**Q.** For `NS(=O)(=O)NCc1csc2c1S(=O)(=O)N=C(C1=C(O)[C@@H]3[C@H]4CC[C@H](C4)[C@@H]3N(Cc3ccc(F)cc3)C1=O)N2` [Example 34, N-{3-[(1R,2S,7R,8S)-3-(4-Fluoro-benzyl)-6-hydroxy-4-oxo-3-aza-tricyclo[6.2.1.0^2,7]undec-5-en-5-yl]-1,1-dioxo-1,4-dihydro-1λ^6-thieno[2,3-e][1,2,4]thiadiazin-7-ylmethyl}-sulfamide], which EC50 is on record?
**A.** 100 to 1000 nM

**Q.** How did the EC50 turn out when `CC(C)CCN1C(=O)C(C2=NS(=O)(=O)c3c(CNS(C)(=O)=O)csc3N2)=C(O)C2C3CCC(O3)C21` (racemic) [Example 63, (rac-di-exo)-N-{3-[6-Hydroxy-3-(3-methyl-butyl)-4-oxo-11-oxa-3-aza-tricyclo[6.2.1.0^2,7]undec-5-en-5-yl]-1,1-dioxo-1,4-dihydro-1λ^6-thieno[2,3-e][1,2,4]thiadiazin-7-ylmethyl}-methanesulfonamide] was run?
**A.** 20 to 100 nM

**Q.** With `CC(C)CCN1C(=O)C(C2=NS(=O)(=O)c3c(CNS(C)(=O)=O)csc3N2)=C(O)[C@@H]2CCC[C@@H]21` [Example 128, (4aR,7aS)-N-{3-[4-Hydroxy-1-(3-methyl-butyl)-2-oxo-2,4a,5,6,7,7a-hexahydro-1H-[1]pyrindin-3-yl]-1,1-dioxo-1,4-dihydro-1λ^6-thieno[2,3-e][1,2,4]thiadiazin-7-ylmethyl}-methanesulfonamide] as the molecule, how does the EC50 read?
**A.** 20 to 100 nM

**Q.** Which EC50 does the source give for `CS(=O)(=O)NCc1csc2c1S(=O)(=O)N=C(C1=C(O)[C@@H]3[C@@H]4CC[C@@H](C4)[C@@H]3N(Cc3ccccc3)C1=O)N2` [Example 39, N-[3-((1S,2S,7R,8R)-3-Benzyl-6-hydroxy-4-oxo-3-aza-tricyclo[6.2.1.0^2,7]undec-5-en-5-yl)-1,1-dioxo-1,4-dihydro-1λ^6-thieno[2,3-e][1,2,4]thiadiazin-7-ylmethyl]-methanesulfonamide] here?
**A.** 5 to 20 nM

**Q.** How did the EC50 turn out when `CS(=O)(=O)NCc1csc2c1S(=O)(=O)N=C(C1=C(O)C(Cc3ccccc3)CN(Cc3ccc(F)cc3)C1=O)N2` (racemic) [Example 12, rac-N-{3-[5-Benzyl-1-(4-fluoro-benzyl)-4-hydroxy-2-oxo-1,2,5,6-tetrahydro-pyridin-3-yl]-1,1-dioxo-1,4-dihydro-1λ^6-thieno[2,3-e][1,2,4]thiadiazin-7-ylmethyl}-methanesulfonamide] was run?
**A.** > 1000 nM

**Q.** `CC(C)CCn1nc(-c2cccs2)c(O)c(C2=NS(=O)(=O)c3c(CNS(C)(=O)=O)csc3N2)c1=O` [Example 28, N-{3-[5-Hydroxy-2-(3-methyl-butyl)-3-oxo-6-thiophen-2-yl-2,3-dihydro-pyridazin-4-yl]-1,1-dioxo-1,4-dihydro-1λ^6-thieno[2,3-e][1,2,4]thiadiazin-7-ylmethyl}-methanesulfonamide] was tested. Which EC50 did it give?
**A.** 100 to 1000 nM

**Q.** Which EC50 does the source give for `COc1cc(CN2C(=O)C(C3=NS(=O)(=O)c4c(CNS(C)(=O)=O)csc4N3)=C(O)[C@@H]3[C@@H]4CC[C@@H](C4)[C@@H]32)ccc1F` [Example 43, N-{3-[(1S,2S,7R,8R)-3-(4-Fluoro-3-methoxy-benzyl)-6-hydroxy-4-oxo-3-aza-tricyclo[6.2.1.0^2,7]undec-5-en-5-yl]-1,1-dioxo-1,4-dihydro-1λ^6-thieno[2,3-e][1,2,4]thiadiazin-7-ylmethyl}-methanesulfonamide] here?
**A.** 20 to 100 nM

**Q.** For `CCCC1CC(O)=C(C2=NS(=O)(=O)c3c(CNS(C)(=O)=O)csc3N2)C(=O)N1Cc1ccc(F)cc1` (racemic) [Example 5, rac-N-{3-[1-(4-Fluoro-benzyl)-4-hydroxy-2-oxo-6-propyl-1,2,5,6-tetrahydro-pyridin-3-yl]-1,1-dioxo-1,4-dihydro-1λ^6-thieno[2,3-e][1,2,4]thiadiazin-7-ylmethyl}-methanesulfonamide], which EC50 is on record?
**A.** 100 to 1000 nM

**Q.** How did the EC50 turn out when `CS(=O)(=O)NCc1csc2c1S(=O)(=O)N=C(C1=C(O)[C@@H]3[C@@H]4CC[C@@H](C4)[C@@H]3N(Cc3ccc(F)cc3F)C1=O)N2` [Example 40, N-{3-[(1S,2S,7R,8R)-3-(2,4-Difluoro-benzyl)-6-hydroxy-4-oxo-3-aza-tricyclo[6.2.1.0^2,7]undec-5-en-5-yl]-1,1-dioxo-1,4-dihydro-1λ^6-thieno[2,3-e][1,2,4]thiadiazin-7-ylmethyl}-methanesulfonamide] was run?
**A.** 20 to 100 nM

**Q.** With `COc1cc(CN2C(=O)C(C3=NS(=O)(=O)c4c(CNS(C)(=O)=O)csc4N3)=C(O)[C@@H]3CCC[C@@H]32)ccc1F` [Example 114, (4aR,7aS)-N-{3-[1-(4-Fluoro-3-methoxy-benzyl)-4-hydroxy-2-oxo-2,4a,5,6,7,7a-hexahydro-1H-[1]pyrindin-3-yl]-1,1-dioxo-1,4-dihydro-1λ^6-thieno[2,3-e][1,2,4]thiadiazin-7-ylmethyl}-methanesulfonamide] as the molecule, how does the EC50 read?
**A.** 100 to 1000 nM

**Q.** For `CS(=O)(=O)NCc1csc2c1S(=O)(=O)N=C(C1=C(O)C3C4C=CC(C4)C3N(Cc3ccccc3)C1=O)N2` (racemic) [Example 46, (rac-di-exo)-N-[3-(3-Benzyl-6-hydroxy-4-oxo-3-aza-tricyclo[6.2.1.0^2,7]undeca-5,9-dien-5-yl)-1,1-dioxo-1,4-dihydro-1λ^6-thieno[2,3-e][1,2,4]thiadiazin-7-ylmethyl]-methanesulfonamide], which EC50 is on record?
**A.** ≤ 5 nM

**Q.** Which EC50 does the source give for `CS(=O)(=O)NCc1csc2c1S(=O)(=O)N=C(C1=C(O)[C@@H]3CCC[C@@H]3N(CC3CCCCC3)C1=O)N2` [Example 103, (4aR,7aS)-N-[3-(1-Cyclohexylmethyl-4-hydroxy-2-oxo-2,4a,5,6,7,7a-hexahydro-1H-[1]pyrindin-3-yl)-1,1-dioxo-1,4-dihydro-1λ^6-thieno[2,3-e][1,2,4]thiadiazin-7-ylmethyl]-methanesulfonamide] here?
**A.** 20 to 100 nM

**Q.** With `CS(=O)(=O)NCc1csc2c1S(=O)(=O)N=C(C1=C(O)[C@@H]3CCC[C@@H]3N(C3CCCCC3)C1=O)N2` [Example 99, (4aR,7aS)-N-[3-(1-Cyclohexyl-4-hydroxy-2-oxo-2,4a,5,6,7,7a-hexahydro-1H-[1]pyrindin-3-yl)-1,1-dioxo-1,4-dihydro-1λ^6-thieno[2,3-e][1,2,4]thiadiazin-7-ylmethyl]-methanesulfonamide] as the molecule, how does the EC50 read?
**A.** 100 to 1000 nM

**Q.** For `CS(=O)(=O)NCc1csc2c1S(=O)(=O)N=C(C1=C(O)C3C4CCC(O4)C3NC1=O)N2` (racemic) [Example 83, (rac-di-exo)-N-[3-(6-Hydroxy-4-oxo-11-oxa-3-aza-tricyclo[6.2.1.0^2,7]undec-5-en-5-yl)-1,1-dioxo-1,4-dihydro-1λ^6-thieno[2,3-e][1,2,4]thiadiazin-7-ylmethyl]-methanesulfonamide], which EC50 is on record?
**A.** > 1000 nM

**Q.** `Cc1cc(CN2C(=O)C(C3=NS(=O)(=O)c4c(CNS(C)(=O)=O)csc4N3)=C(O)[C@@H]3CCC[C@@H]32)ccc1F` [Example 126, (4aR,7aS)-N-{3-[1-(4-Fluoro-3-methyl-benzyl)-4-hydroxy-2-oxo-2,4a,5,6,7,7a-hexahydro-1H-[1]pyrindin-3-yl]-1,1-dioxo-1,4-dihydro-1λ^6-thieno[2,3-e][1,2,4]thiadiazin-7-ylmethyl}-methanesulfonamide] was tested. Which EC50 did it give?
**A.** 20 to 100 nM

**Q.** For `CS(=O)(=O)NCc1csc2c1S(=O)(=O)N=C(C1=C(O)[C@@H]3[C@@H]4CC[C@@H](C4)[C@@H]3N(Cc3ccc(F)cc3Cl)C1=O)N2` [Example 42, N-{3-[(1S,2S,7R,8R)-3-(2-Chloro-4-fluoro-benzyl)-6-hydroxy-4-oxo-3-aza-tricyclo[6.2.1.0^2,7]undec-5-en-5-yl]-1,1-dioxo-1,4-dihydro-1λ^6-thieno[2,3-e][1,2,4]thiadiazin-7-ylmethyl}-methanesulfonamide], which EC50 is on record?
**A.** 100 to 1000 nM

**Q.** Which EC50 does the source give for `CC(C)(C)C1CN(Cc2ccc(F)cc2)C(=O)C(C2=NS(=O)(=O)c3c(CNS(C)(=O)=O)csc3N2)=C1O` (racemic) [Example 14, rac-N-{3-[5-tert-Butyl-1-(4-fluoro-benzyl)-4-hydroxy-2-oxo-1,2,5,6-tetrahydro-pyridin-3-yl]-1,1-dioxo-1,4-dihydro-1λ^6-thieno[2,3-e][1,2,4]thiadiazin-7-ylmethyl}-methanesulfonamide] here?
**A.** 5 to 20 nM

**Q.** `CS(=O)(=O)NCc1csc2c1S(=O)(=O)N=C(C1=C(O)[C@@H]3CCC[C@@H]3NC1=O)N2` [Example 85, (4aR,7aS)-N-[3-(4-Hydroxy-2-oxo-2,4a,5,6,7,7a-hexahydro-1H-[1]pyrindin-3-yl)-1,1-dioxo-1,4-dihydro-1λ^6-thieno[2,3-e][1,2,4]thiadiazin-7-ylmethyl]-methanesulfonamide] was tested. Which EC50 did it give?
**A.** > 1000 nM

**Q.** For `CS(=O)(=O)NCc1csc2c1S(=O)(=O)N=C(C1=C(O)[C@@H]3[C@H]4CC[C@H](C4)[C@@H]3N(CCC3CCC3)C1=O)N2` [Example 26, N-{3-[(1R,2S,7R,8S)-3-(2-Cyclobutyl-ethyl)-6-hydroxy-4-oxo-3-aza-tricyclo[6.2.1.0^2,7]undec-5-en-5-yl]-1,1-dioxo-1,4-dihydro-1λ^6-thieno[2,3-e][1,2,4]thiadiazin-7-ylmethyl}-methanesulfonamide], which EC50 is on record?
**A.** 20 to 100 nM
